Reference: US20050233413A1, “Neuroprotective polypeptides and methods of use” (priority 2002, published 2005)
Where two headings read alike, the source gives them in different places. Where no end group is shown, it is not given here.

B1: (S7A)HN-DYKDDDDK (S7A-FLAG) (peptide)
peptide: MAPRGFACLLLLTSEIDLPVKRRADYKDDDDK
notes: Synthetic C-terminally FLAG-tagged peptide; also called (S7A)HN-FLAG

Experiments:
[1] = test system: primary cultured neurons treated with 25 μM Aβ1-43; settings: as described previously [16]; read-out: IC50 of the HNG action against Aβ1-43-induced neuronal death; cited from earlier work
[2] = test system: Aβ and four FAD genes (V642I-APP, NL-APP, M146L-PS1, and N141I-PS2); assay type: cell-based; settings: Table 5, marked *
Source text: (§1) F11 cells, the hybrid of a rat embryonic-day-13 primary cultured primary neuron and a mouse neuroblastoma cell, are one of the best models for primary cultured neurons as they carry representative characteristics of primary neurons, such as generation of action potentials without differentiation by NGF [22]. They have been used in various studies of is neuronal functions. Using these cells, the underlying mechanisms for cytotoxicity by V642I-APP have well been analyzed. Cytotoxicity by V642 mutants of APP has also been confirmed in multiple different systems. F11 cells were grown in Ham's F-12 (GibcoBRL, Gaithersburg, Md.) plus 18% fetal bovine serum (FBS; Hyclone, Logan, Utah) and antibiotics, as described previously. F11 cells (7×10^4 cell/well in a 6-well plate cultured in Ham's F-12 plus 18% FBS for 12-16 hr) were transfected with plasmids encoding FAD genes by lipofection [FAD cDNA 2 μg, LipofectAMINE 4 μl, PLUS reagent 8 μl (GibcoBRL)] in the absence of serum for 3 hr, and were incubated with Ham's F-12 plus 18% FBS for 2 hr. Then, culture media were changed to Ham's F-12 plus 10% FBS with or without HN peptides, and cells were cultured for an additional 67 hr. Seventy-two hr after transfection, cell mortality was measured by Trypan blue exclusion assay, performed as follows. Cells were suspended by pipetting gently, and 50 μl of 0.4% (finally 0.08%) Trypan blue solution (Sigma, St Louis, Mo.) was mixed with 200 μl of the cell suspension at room temperature. Stained cells were counted within 3 min after the mixture with Trypan blue solution.
(§2) The primary culture of mouse cortical neurons was performed in poly-L-lysine-coated 24-well plates or 96-well plates (Sumitomo Bakelite, Akita, Japan), in the absence of serum and the presence of N2 supplement, as described previously. The purity of neurons by this method was >98%. Prepared neurons (for neurons seeded in 96-well plates: 2.5×10^4 or 5×10^4 cells/well, 100 μl culture medium/well; for neurons seeded in 24-well plates: 1.25×10^5 cells/well, 250 μl culture medium/well) were preincubated with or without 10 μM (in case for the experiment with 10 μM HN) synthetic HN for 16 hr, and treated with 25 μM Aβ in the presence or absence of 10 μM HN for 72 hr, respectively. As primary neurons were vulnerable to transient dryness during medium exchange, we treated neurons with 25 μM Aβ as follows. First, a half volume (50 μl for neurons in 96-well plates; 125 μl for neurons in 24-well plates) of old medium was discarded. Then, the same volume (50 μl for neurons in 96-well plates; 125 μl for neurons in 24-well plates) of prewarned fresh medium containing 10 μM HN and 50 μM Aβ (Aβ was directly resolved) was added to the culture. The Aβ peptides used at 25 μM to induce neurotoxicity formed aggregation in the medium during the cell culture at 37° C. for 72 hr. as described. The WST-8 cell viability assay was performed, using Cell Counting Kit-8 (Wako Pure Chemical Industries, Osaka, Japan), as described previously.
(§3) Calcein assay was performed with Calcein-AM {3′,6′-di-(O-acetyl)-2′,7′-bis [N,N-bis(carboxymethyl)aminomethyl] fluorescein, tetraacetoxymethyl ester; Dojindo}, as described previously. These assays were simultaneously performed in the experiments with neurons seeded in 96-well plates, as follows. Seventy-two hours after Aβ treatment, cells were added with the mixture of 10 μl WST-8 solution and 1 μl of 600 μM Calcein-AM. After 2 hr incubation in a CO2 incubator at 37° C., WST-8 absorbance was measured as OD450. After exchanging the medium to PBS to lower the background, Calcein-specific fluorescence (ex=485 nm, em=535 nm) was observed by fluorescence microscopy or measured by a spectrofluorometer (Wallac1420 ARVOsx Multi Label Counter). […]

[3] = test system: F11 cells transfected with V642I-APP, NL-APP, M146L-PS1 or N141I-PS2 cDNA; assay type: cell-based, rat/mouse hybrid
Source text: as §1

[4] = Apparent stability of peptides in the culture medium; assay type: physicochemical; settings: 72-hr incubation of 10 μM peptides in the cultured medium; data not shown
Source text: The Ser^7 residue plays a role different from that of Ser^14. S7A substitution nullified the action of HN, while Ser^7 racemation had no influence. […] Given the fact that EFLIVIKS or EFLIVKS is the established amino acid sequence to form a dimer and that EFLIVIKS alone had no cytoprotective action, it is most likely that Ser^7 is essential for HN to self-dimerize and that self-dimerization of HN is essential for the action of HN. […] This level of stability alterations could not account for the drastic potentiation of the rescue action by the fusion with EFLIVIKS.

[5] = molecular target: T1, HN (self-dimerization) (Homo sapiens, UniProt Q8IVG9); test: Dimerization experiment (Ni-bead precipitation of FLAG-tagged peptide by (His)6-tagged peptide); assay type: binding; settings: excess amounts of competitor
T1 construct: host or cells: chemically synthesised peptide (no expression host)
Description: (§4) Synthetic (His)6-tagged HN derivative peptides (1 nmol) was incubated with 20 μl of Ni-NTA agarose (QIAGEN, Hilden, Germany) in a total volume of 0.5 ml of buffer A [20 mM Tris/HCl (pH8.0) and 1 mM DTT] for 1 hr at 4° C. and washed once with buffer B [20 mM Tris/HCl (pH 7.4), 1 mM DTT, and 150 mM NaCl]. Synthetic FLAG-tagged peptides (1 nmol) were mixed with the beads immobilizing (His)6-tagged peptides in a total volume of 0.5 ml of buffer B for 2 hr at 4° C. on a rotating shaker, and washed three times with buffer B. The washed beads were mixed with 20 μl of 2× sampling buffer [100 mM Tris/HCl (pH6.8), 200 mM DTT, 4% (w/v) SDS, 0.2% bromophenol blue, and 20% (v/v) glycerol] and boiled. The supernatant was submitted to Tris/Tricine SDS-PAGE, followed by immunoblotting analysis with 1/5000 anti-FLAG monoclonal antibody M2 (Sigma).

[6] = test system: Aβ and V642I-APP; assay type: cell-based; settings: Table 5, marked **
Source text: as §1, §2, §3

[7] = molecular target: T2, HN (self-dimerization) (Homo sapiens, UniProt Q8IVG9, S7A); test: Dimerization experiment (Ni-bead precipitation of FLAG-tagged peptide by (His)6-tagged peptide); assay type: binding; settings: excess amounts of competitor
T2 construct: host or cells: chemically synthesised peptide (no expression host)
T2 sequence (Q8IVG9 with tags, fused parts or gaps S7A): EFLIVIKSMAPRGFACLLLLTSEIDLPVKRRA
Description: as §4

[8] = test system: primary cultured neurons treated with 25 μM Aβ1-43; assay type: cell-based
Description: (§5) In one assay, transfection with V642I-APP causes cell death in F11 neuronal hybrid cells. In the other, treatment with Aβ peptides causes cell death in primary cultured cortical neurons.
as §2
Calcein assay was performed with Calcein-AM {3′,6′-di-(O-acetyl)-2′,7′-bis [N,N-bis(carboxymethyl)aminomethyl] fluorescein, tetraacetoxymethyl ester; Dojindo}, as described previously. These assays were simultaneously performed in the experiments with neurons seeded in 96-well plates, as follows. Seventy-two hours after Aβ treatment, cells were added with the mixture of 10 μl WST-8 solution and 1 μl of 600 μM Calcein-AM. After 2 hr incubation in a CO2 incubator at 37° C., WST-8 absorbance was measured as OD450. After exchanging the medium to PBS to lower the background, Calcein-specific fluorescence (ex=485 nm, em=535 nm) was observed by fluorescence microscopy or measured by a spectrofluorometer (Wallac1420 ARVOsx Multi Label Counter). Most cell viability data using Calcein assay and WST-8 assay were obtained from neurons seeded at 5×10^4 cells/well in 96-well plates (high-density neurons) and confirmed by both assays with the cells seeded at 2.5×10^4 cells/well (low-density neurons).
Some experiments for Calcein assay were performed with neurons seeded in 24-well plates. […] In most experiments using primary neurons, four independent experiments were performed and the means? S. D. of the results were discussed.

[9] = test system: F11 cells transfected with V642I-APP cDNA; test: F11 cell death by V642I-APP transfection (Trypan blue exclusion); assay type: cell-based
Source text: as §5, §1

[10] = test system: HN (self-dimerization); test: Dimerization experiment (Ni-bead precipitation of FLAG-tagged peptide by (His)6-tagged peptide); assay type: binding; settings: Ni-bead precipitation, anti-FLAG immunoblot
Description: as §4

[11] = molecular target: T3, (His)6-(S7A)HN; test: Ni-bead pull-down, anti-FLAG immunoblot
T3 construct: Synthetic peptide, immobilised on Ni-NTA agarose; also called His-S7A
T3 peptide: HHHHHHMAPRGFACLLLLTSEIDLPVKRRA
Description: as §4, with “(His)₆-tagged” for “(His)6-tagged”
Synthetic (His)₆-HN was mixed with synthetic HN-FLAG, and precipitated by Ni-beads. The precipitate was examined with an anti-FLAG antibody for HN-FLAG. […] Under the same conditions, (S7A)HN-FLAG was not precipitated by (His)₆-(S7A)HN. EF-(S7A)HN-FLAG was precipitated by (His)₆-EF-(S7A)HN as efficiently as HN-FLAG precipitation by (His)₆-HN.

T1 sequence (Q8IVG9 whole entry): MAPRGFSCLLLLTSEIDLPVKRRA

| Molecule | amount of peptide relative to the amount at time zero [4] | effect of excess competitor on HN-FLAG precipitation by (His)6-HN [5] | Full protection [6] | IC50 [6] [nM] | effect of excess competitor on EF-(S7A)HN-FLAG precipitation by (His)6-EF-(S7A)HN [7] | concentration up to which no neuroprotection against Aβ1-43 was exerted ([8]; 25 μM Aβ1-43, primary neurons) [µM] | self-dimerization / complex formation (in words) [10] | also measured |
| --- | --- | --- | --- | --- | --- | --- | --- | --- |
| MAPRGFSCLLLLTGEIDLPVKRRA [HNG, reference compound] | about ⅔ | abolished |  |  |  |  |  | IC50 [1]: ~0.5 nM; Full protection (minimal concentration that exerted full cytoprotection) [2]: ˜10 nM; IC50 ([3]; each of V642I-APP, read-out: IC50 of suppression of neuronal cell death by FAD genes): ~0.03 nM |
| EFLIVIKS [dimerization peptide, reference compound] |  | could not interfere | NE** (the corresponding peptide had no cytoprotective effect at 10 μM) | > 10000 | blocked | > 100 |  |  |
| MAPRGFACLLLLTSEIDLPVKRRA [S7A HN] | about ⅔ |  |  |  | not | > 10 | little activity for self-dimerization | concentration up to which no cytoprotection against V642I-APP was exerted ([9]; F11 cells): > 10 µM; Full protection [2]: NE* (the corresponding peptide had no cytoprotective effect at 10 μM); IC50 ([2]; read-out: IC50): > 10000 nM; cytoprotective action against FAD genes (in words) ([3]; V642I-APP): no effect |
| EFLIVIKSMAPRGFACLLLLTSEIDLPVKRRA [EF-(S7A)HN] | virtually unaltered |  |  |  |  |  | self-dimerizes through the EFLIVIKS region | IC50 [9]: 1 nM; concentration of full cytoprotection / complete suppression against V642I-APP ([9]; F11 cells): 100 nM; potency of cytoprotection against V642I-APP relative to HN ([9]; times higher than that of HN): about 100 times; Full protection (minimal concentration that exerted full cytoprotection) [6]: ˜100 nM; IC50 [8]: ~10 nM; concentration of full neuroprotection against Aβ1-43 ([8]; 25 μM Aβ1-43): 100 nM; suppression of Aβ neurotoxicity in the presence of 100 μM EFLIVIKS ([8]; 25 μM Aβ1-43, EF-HN and EF-HNG at 10 μM, WST-8 and Calcein assays): could not suppress Aβ neurotoxicity at all |
| YMAPRGFSCLLLLTGEIDLPVKKKK [HNG-KKK, HNG with its C-terminal KRRA substituted to KKKK] |  | no effect | NE** (the corresponding peptide had no cytoprotective effect at 10 μM) | > 10000 |  | > 10 | little activity to form a complex with HN | neuroprotective action against Aβ1-43 (in words) ([8]; 25 μM Aβ1-43, primary neurons): lost the neuroprotective action |
| B1 |  |  |  |  |  |  |  | binding result [11]: no binding (tested: 1 nmol of each peptide in 0.5 ml) |
